Experimental data reported in patent US20060241114A1, “Derivatives of azasugars as anticancer agents” (priority 2003, published 2006).

Assays:
[1] = tested on: MCF7 (breast adenocarcinoma); test: In vitro growth inhibition screen (sulphorhodamine B), MCF7; assay type: cell-based, human; details: MCF7 cells, incubated for 48 hours, sulphorhodamine B dye; read-out: GI50 (concentration which inhibits the cell growth by 50%), MCF7 Breast adenocarcinoma
Description: (§1) Each agent was tested over a broad concentration range (ten-fold dilutions starting from ≧100 μM to 10 nM) against 6 human cancer cell lines which was comprised of different tumor types. These are DU145 (prostate carcinoma), HT29 (colorectal adenocarcinoma), LOX (melanoma), MCF7 (breast adenocarcinoma), MCF7ADR (adriamycin resistant breast adenocarcinoma), and U251 (human glioblastoma). A standard compound doxorubicin was tested in each assay as a positive control. The cells were maintained in growing condition in RPMI 1640 medium containing 10% fetal calf serum and incubated at 37° C. under 5% CO2 atmosphere. All cell lines were inoculated onto a series of standard 96-well microtitre plate on day zero, followed by twenty four-hour incubation in the absence of test compound. The inoculation densities in the screen were as per Monk et al., (1991) J. Natl. Cancer Inst., 83, 757-766. All NCEs were dissolved in DMSO and diluted further in culture medium. An aliquot of each dilution was added to the growing cells in 96 well plates and incubated for 48 hours. After incubation, the assay was terminated by adding 50 μL of trichloroacetic acid (TCA) and incubating at 4° C. for 30 min. The precipitated cells were washed and stained with sulphorhodamine B dye for 30 min and the excess dye was washed off with acetic acid. Adsorbed dye was solubilised in Tris base (alkaline pH) and quantitated by measuring the OD at […] in ELISA READER. GI50 (concentration which inhibits the cell growth by 50%) was calculated according to Boyd and Paull, (1995) Drug Dev. Res., 34, 91-109.

LOX (melanoma) = test: In vitro growth inhibition screen (sulphorhodamine B), LOX; assay type: cell-based, human; details: LOX cells, incubated for 48 hours, sulphorhodamine B dye; read-out: GI50 (concentration which inhibits the cell growth by 50%), LOX Melanoma
Description: as §1

[2] = tested on: MCF7ADR (adriamycin resistant breast adenocarcinoma); test: In vitro growth inhibition screen (sulphorhodamine B), MCF7ADR; assay type: cell-based, human; details: MCF7ADR cells, incubated for 48 hours, sulphorhodamine B dye; read-out: GI50 (concentration which inhibits the cell growth by 50%), MCF7ADR Adriamycin Resistant Breast adenocarcinoma
Description: as §1

[3] = tested on: DU145 (prostate carcinoma); test: In vitro growth inhibition screen (sulphorhodamine B), DU145; assay type: cell-based, human; details: DU145 cells, incubated for 48 hours, sulphorhodamine B dye; read-out: GI50 (concentration which inhibits the cell growth by 50%), DU145 Prostate carcinoma
Description: as §1

[4] = tested on: HT29 (colorectal adenocarcinoma); test: In vitro growth inhibition screen (sulphorhodamine B), HT29; assay type: cell-based, human; details: HT29 cells, incubated for 48 hours, sulphorhodamine B dye; read-out: GI50 (concentration which inhibits the cell growth by 50%), HT29 Colorectal adenocarcinoma
Description: as §1

[5] = tested on: U251 (human glioblastoma); test: In vitro growth inhibition screen (sulphorhodamine B), U251; assay type: cell-based; details: U251 cells, incubated for 48 hours, sulphorhodamine B dye; read-out: GI50 (concentration which inhibits the cell growth by 50%), U251 Human glioblastoma astrocytoma
Description: as §1

Row | Compound | GI50 [1] [µM] | GI50 (LOX (melanoma)) [µM] | GI50 [2] [µM] | GI50 [3] [µM] | GI50 [4] [µM] | GI50 [5] [µM]
1 | CCCN1C(=O)[C@H](OCc2ccccc2)[C@@H](OCc2ccccc2)[C@H](OCc2ccccc2)[C@H]1CNC(=O)CNc1ccc(F)cc1 [Compound No. 55, 2,3,4-Tri-O-benzyl-6-N-{2-[4-fluoroanilino]acetyl}-N-propyl-D-gluco-δ-lactam] | 8.2 | 3.3 | 10.2 | 4.1 | 4.7 | 4.1
2 | CCCN1C(=O)[C@H](OCc2ccccc2)[C@@H](OCc2ccccc2)[C@H](OCc2ccccc2)[C@H]1CNC(=O)Nc1ccc(F)cc1 [Compound No. 11, 2,3,4-Tri-O-benzyl-6-N-{[p-fluorophenyl]aminocarbonylamino}-N-propyl-D-gluco-δ-lactam] | 2.4 | 2.1 | 2.6 | 2.7 | 2.7 | 3.2
3 | CCCN1C(=O)[C@H](OCc2ccccc2)[C@@H](OCc2ccccc2)[C@H](OCc2ccccc2)[C@H]1CNC(=O)CN1CCN(c2ccc(F)cc2)CC1 [Compound No. 58, 2,3,4-Tri-O-benzyl-6-N-{2-[4-(4-fluorophenyl)-piperazin-1-yl]acetyl}-N-propyl-D-gluco-δ-lactam] | 8.2 | 2.8 | 10.2 | 19.4 | 7.9 | 13.4
4 | 2,3,4-Tri-O-benzyl-6-(trifluoromethylacetamido)-N-propyl-D-gluco-δ-lactam [Compound No. 51] | 9.9 | 13.6 | 16 | 43.7 | 6.8 | 10.3
5 | CCCN1C(=O)[C@H](OCc2ccccc2)[C@@H](OCc2ccccc2)[C@H](OCc2ccccc2)[C@H]1CNC(=O)Nc1ccc(Cl)c(Cl)c1 [Compound No. 18, 2,3,4-Tri-O-benzyl-6-N-{[3,4-dichlorophenyl]aminocarbonylamino}-N-propyl-D-gluco-δ-lactam] | 2 | 2 | 2.9 | 2.5 | 2.2 | 2.6
6 | CCCN1C(=O)C(OCc2ccccc2)C(OCc2ccccc2)C(OCc2ccccc2)C1CNC(=O)CN1CCN(C)CC1 [Compound No. 59, 2,3,4-Tri-O-benzyl-6-N-{2-[N-(methyl)piperazin-1-yl]acetyl}-N-propyl-D-gluco-δ-lactam] | 8.1 | 3.8 | 25.3 | 12.2 | 1.9 | 12.6
7 | CCCN1C(=O)[C@H](O)[C@@H](O)[C@H](O)[C@H]1Cn1cncn1 [Compound No. 70, 6-Triazolyl-N-propyl-D-gluco-δ-lactam] | 340 | 232 | 894 | 252 | 302 | 516
8 | CCCN1C(=O)[C@H](OCc2ccccc2)[C@@H](OCc2ccccc2)[C@H](OCc2ccccc2)[C@H]1CNC(=O)Nc1ccc(F)cc1F [Compound No. 16, 2,3,4-Tri-O-benzyl-6-N-{[2,4-difluorophenyl]aminocarbonylamino}-N-propyl-D-gluco-δ-lactam] | 55.6 | 53.3 | 74.1 | 59.7 | 58.2 | 22.9
9 | N-{4-[Phenyl]piperazinyl carboxamido}-D-gluco-δ-lactam [Compound No. 80] | 69.4 | 75.9 | 60.1 | 90.7 | 100 | 59.9
10 | CCCN1C[C@H](O)[C@@H](O)[C@H](O)[C@H]1Cn1ccnn1 [Compound No. 73, 1,5-Dideoxy-1,5-imino-N-propyl-6-triazolyl glucitol] | 320 | 247 | 291 | 267 | 470 | 506
11 | CCCN1C(=O)C(OCc2ccccc2)C(OCc2ccccc2)C(OCc2ccccc2)C1CNC(=O)NC(C)C [Compound No. 20, 2,3,4-Tri-O-benzyl-6-N-{[isopropyl]aminocarbonylamino}-N-propyl-D-gluco-δ-lactam] | 4.1 | 5.9 | 5.5 | 15.3 | 2.6 | 3.3
12 | C=CCN1C(=O)[C@H](OCc2ccccc2)[C@@H](OCc2ccccc2)[C@H](OCc2ccccc2)[C@H]1Cn1ccnn1 [Compound No. 69, N-Allyl-2,3,4-tri-O-benzyl-6-triazolyl-D-gluco-δ-lactam] | 47.8 | 47.4 | 39.4 | 51 | 31.6 | 37.9
13 | CCCN1C(=O)[C@H](OCc2ccccc2)[C@@H](OCc2ccccc2)[C@H](OCc2ccccc2)[C@H]1CNC(=O)CN1CCN(c2ccc(Cl)cc2)CC1 [Compound No. 64, 2,3,4-Tri-O-benzyl-6-N-{2-[4-(4-chlorophenyl)piperazinyl]acetyl}-N-propyl-D-gluco-δ-lactam] | 1.5 | 6.3 | 4.3 | 12.5 | 8.1 | 3.7
14 | CCCN1C[C@H](OCc2ccccc2)[C@@H](OCc2ccccc2)[C@H](OCc2ccccc2)[C@H]1CNC(=S)Nc1ccc(Cl)cc1 [Compound No. 39, 2,3,4-Tri-O-benzyl-6-N-{[4-chlorophenyl]aminothiocarbonylamino}-1,5-dideoxy-1,5-imino-N-propyl glucitol] | 16.1 | 103 | 52.7 | 72.7 | 20.6 | 31.9
15 | CCCN1C(=O)[C@H](OCc2ccccc2)[C@@H](OCc2ccccc2)[C@H](OCc2ccccc2)[C@H]1CNC(=O)CN1C[C@H](OCc2ccccc2)[C@@H](OCc2ccccc2)[C@H](OCc2ccccc2)[C@H]1COCc1ccccc1 [Compound No. 61, 2,3,4-Tri-O-benzyl-6-N-{2-[2,3,4,6-tetra-O-benzyl-1,5-dideoxy-1,5-imino-glucitolyl]acetyl}-N-propyl-D-gluco-δ-lactam] | > 618 | > 618 | > 618 | 195 | > 618 | > 618
16 | CCCN1C(=O)[C@H](OCc2ccccc2)[C@@H](OCc2ccccc2)[C@H](OCc2ccccc2)[C@H]1CNC(=O)NC12CC3CC(CC(C3)C1)C2 [Compound No. 23, 2,3,4-Tri-O-benzyl-6-N-{[1-adamantyl]aminocarbonylamino}-N-propyl-D-gluco-δ-lactam] | 5.6 | 35.7 | 26 | 50 | 28.7 | 4.2
17 | CCCN1C(=O)[C@H](OCc2ccccc2)[C@@H](OCc2ccccc2)[C@H](OCc2ccccc2)[C@H]1CNC(=O)Cn1cncn1 [Compound No. 53, 2,3,4-Tri-O-benzyl-N-propyl-6-{2-[triazolyl]-acetyl}-D-gluco-δ-lactam] | 6.6 | 8.3 | 10 | 8.8 | 9.3 | 12.9
18 | CCCN1C(=O)[C@H](OCc2ccccc2)[C@@H](OCc2ccccc2)[C@H](OCc2ccccc2)[C@H]1CNC(=O)CN1CCN(c2c(CC)cccc2CC)CC1 [Compound No. 62, 2,3,4-Tri-O-benzyl-6-N-{2-[N-(2,6-diethylphenyl)piperazinyl]acetyl}-N-propyl-D-gluco-δ-lactam] | > 402 | 37.7 | > 402 | 24.3 | 24.9 | 30
19 | C=CCN1C(=O)C(OCc2ccccc2)C(OCc2ccccc2)C(OCc2ccccc2)C1Cn1ncn(-c2ccc(Cl)cc2)c1=O [Compound No. 81, 2,3,4-Tri-O-benzyl-6-[4-chlorophenyl-3(2H,4H)-1,2,4-triazol-3-onyl]-N-allyl-D-gluco-δ-lactam] | 102 | 11.9 | 77 | 70.1 | 49.5 | > 250
20 | CCCN1C(=O)[C@H](O)[C@@H](O)[C@H](O)[C@H]1CNC(=O)Nc1ccc(C(F)(F)F)cc1 [Compound No. 31, 6-N-{[4-Trifluoromethylphenyl]aminocarbonylamino}-N-propyl-D-gluco-δ-lactam] | 139 | 132 | 131 | 113 | 79.5 | 82.2
